Test results taken from PubChem BioAssay AID2060495 (Molecular Pharmacology Branch, DTP, NCI, 2025).
pIC50: −log10 of the molar value.

Test system: 521955-158-R2-J5-PDC complex spheroid viability
Assay: Anticancer human tumor 521955-158-R2-J5-PDC patient-derived pancreatic carcinoma cell line growth inhibition [GQUAD]
Conditions: for pIC50: curve of first compound; for viability, T/C: stronger effect = lower value
Procedure, shortened: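 Multi-cell-type spheroids of tumor cells with HUVEC and mesenchymal stem cells, treated with drug combinations. Concentrations descend in half-log steps from near clinical Cmax, or from 10 microM where Cmax is unknown; viability read-out.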
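Note: spheroids exposed to agents for one week before reading.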
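Throughout, for viability, T/C: 100% = DMSO vehicle control viability.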

COc1cc(C2c3cc4c(cc3C(OC3OC5COC(C)OC5C(O)C3O)C3COC(=O)C23)OCO4)cc(OC)c1O (configuration not stated) + CN(C)c1ccc(Nc2c3ccc(NC(=O)CCN4CCCC4)cc3nc3cc(NC(=O)CCN4CCCC4)ccc23)cc1
pIC50 (second compound 0.0316 µM): 6.11 | pIC50 (second compound 0.1 µM): 6.09 | pIC50 (second compound 0.316 µM): 6.16 | pIC50 (second compound 1 µM): 6.19 | pIC50 (second compound 3.16 µM): 6.26 | pIC50 (second compound 10 µM): 6.23 | viability, T/C (second compound 0.0316 µM, first compound 0.0316 µM): 109% | viability, T/C (second compound 0.0316 µM, first compound 0.1 µM): 89.3% | viability, T/C (second compound 0.0316 µM, first compound 0.316 µM): 65% | viability, T/C (second compound 0.0316 µM, first compound 1 µM): 45.1% | viability, T/C (second compound 0.0316 µM, first compound 3.16 µM): 30.1% | viability, T/C (second compound 0.0316 µM, first compound 10 µM): 17.1% | viability, T/C (second compound 0.1 µM, first compound 0.0316 µM): 82.9% | viability, T/C (second compound 0.1 µM, first compound 0.1 µM): 104% | viability, T/C (second compound 0.1 µM, first compound 0.316 µM): 76.5% | viability, T/C (second compound 0.1 µM, first compound 1 µM): 43.1% | viability, T/C (second compound 0.1 µM, first compound 3.16 µM): 32.5% | viability, T/C (second compound 0.1 µM, first compound 10 µM): 20.1% | viability, T/C (second compound 0.316 µM, first compound 0.0316 µM): 94.2% | viability, T/C (second compound 0.316 µM, first compound 0.1 µM): 85.3% | viability, T/C (second compound 0.316 µM, first compound 0.316 µM): 69.5% | viability, T/C (second compound 0.316 µM, first compound 1 µM): 40.1% | viability, T/C (second compound 0.316 µM, first compound 3.16 µM): 25.6% | viability, T/C (second compound 0.316 µM, first compound 10 µM): 18.2% | viability, T/C (second compound 1 µM, first compound 0.0316 µM): 89.5% | viability, T/C (second compound 1 µM, first compound 0.1 µM): 93.5% | viability, T/C (second compound 1 µM, first compound 0.316 µM): 55.8% | viability, T/C (second compound 1 µM, first compound 1 µM): 45.8% | viability, T/C (second compound 1 µM, first compound 3.16 µM): 28% | viability, T/C (second compound 1 µM, first compound 10 µM): 19.2% | viability, T/C (second compound 3.16 µM, first compound 0.0316 µM): 97.5% | viability, T/C (second compound 3.16 µM, first compound 0.1 µM): 78.9% | viability, T/C (second compound 3.16 µM, first compound 0.316 µM): 61.4% | viability, T/C (second compound 3.16 µM, first compound 1 µM): 39% | viability, T/C (second compound 3.16 µM, first compound 3.16 µM): 26% | viability, T/C (second compound 3.16 µM, first compound 10 µM): 19.9% | viability, T/C (second compound 10 µM, first compound 0.0316 µM): 79.1% | viability, T/C (second compound 10 µM, first compound 0.1 µM): 71% | viability, T/C (second compound 10 µM, first compound 0.316 µM): 55.2% | viability, T/C (second compound 10 µM, first compound 1 µM): 43% | viability, T/C (second compound 10 µM, first compound 3.16 µM): 36.1% | viability, T/C (second compound 10 µM, first compound 10 µM): 23.3%
